{"source": "ChEMBL document CHEMBL5550132", "about": "“Structure-activity relationship in NOD2 agonistic muramyl dipeptides” (Eur J Med Chem, 2024)", "key": {"Cavia porcellus [1]": {"species": "Cavia porcellus", "assay": "Induction of delayed type hypersensitivity in ABA-BSA immunized Hartley Guinea pigs assessed as reduction in skin lesions at 100 ug measured for 24 hrs", "type": "functional", "conditions": "dose 100 µg"}, "Cavia porcellus [2]": {"species": "Cavia porcellus", "assay": "Induction of delayed type hypersensitivity in ABA-BSA immunized Hartley Guinea pigs assessed as reduction in skin lesions at 100 ug measured for 48 hrs", "type": "functional", "conditions": "dose 100 µg"}, "[3]": {"target": "T1, Nuclear factor NF-kappa-B complex (Homo sapiens) (UniProt Q00653+P19838+Q04206)", "T1 sequence (P19838 whole entry, looked up)": "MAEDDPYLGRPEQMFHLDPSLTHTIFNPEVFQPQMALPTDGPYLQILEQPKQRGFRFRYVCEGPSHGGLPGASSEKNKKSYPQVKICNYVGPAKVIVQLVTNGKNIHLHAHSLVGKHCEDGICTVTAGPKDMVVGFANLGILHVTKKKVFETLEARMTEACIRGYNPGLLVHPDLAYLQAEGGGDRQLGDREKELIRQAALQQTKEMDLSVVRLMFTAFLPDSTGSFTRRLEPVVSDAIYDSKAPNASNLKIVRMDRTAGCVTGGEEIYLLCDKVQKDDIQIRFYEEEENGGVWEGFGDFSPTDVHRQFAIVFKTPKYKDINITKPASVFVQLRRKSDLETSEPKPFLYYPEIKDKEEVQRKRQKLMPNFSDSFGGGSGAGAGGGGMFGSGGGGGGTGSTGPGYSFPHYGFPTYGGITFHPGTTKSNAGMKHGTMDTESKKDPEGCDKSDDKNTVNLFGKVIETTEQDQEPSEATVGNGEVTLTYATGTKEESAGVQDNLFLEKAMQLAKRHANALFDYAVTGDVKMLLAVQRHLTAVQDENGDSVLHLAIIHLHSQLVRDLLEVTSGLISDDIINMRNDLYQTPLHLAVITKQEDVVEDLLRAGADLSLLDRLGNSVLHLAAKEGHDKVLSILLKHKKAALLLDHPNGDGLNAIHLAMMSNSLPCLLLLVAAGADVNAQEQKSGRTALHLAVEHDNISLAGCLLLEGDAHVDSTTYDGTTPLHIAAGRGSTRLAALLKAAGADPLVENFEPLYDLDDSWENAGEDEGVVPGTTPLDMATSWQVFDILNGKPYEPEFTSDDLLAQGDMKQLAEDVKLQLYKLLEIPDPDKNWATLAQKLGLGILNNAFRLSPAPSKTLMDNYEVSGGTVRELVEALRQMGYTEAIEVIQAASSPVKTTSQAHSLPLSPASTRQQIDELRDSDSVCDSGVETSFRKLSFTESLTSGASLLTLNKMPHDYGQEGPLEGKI", "T1 sequence (Q00653 whole entry, looked up)": "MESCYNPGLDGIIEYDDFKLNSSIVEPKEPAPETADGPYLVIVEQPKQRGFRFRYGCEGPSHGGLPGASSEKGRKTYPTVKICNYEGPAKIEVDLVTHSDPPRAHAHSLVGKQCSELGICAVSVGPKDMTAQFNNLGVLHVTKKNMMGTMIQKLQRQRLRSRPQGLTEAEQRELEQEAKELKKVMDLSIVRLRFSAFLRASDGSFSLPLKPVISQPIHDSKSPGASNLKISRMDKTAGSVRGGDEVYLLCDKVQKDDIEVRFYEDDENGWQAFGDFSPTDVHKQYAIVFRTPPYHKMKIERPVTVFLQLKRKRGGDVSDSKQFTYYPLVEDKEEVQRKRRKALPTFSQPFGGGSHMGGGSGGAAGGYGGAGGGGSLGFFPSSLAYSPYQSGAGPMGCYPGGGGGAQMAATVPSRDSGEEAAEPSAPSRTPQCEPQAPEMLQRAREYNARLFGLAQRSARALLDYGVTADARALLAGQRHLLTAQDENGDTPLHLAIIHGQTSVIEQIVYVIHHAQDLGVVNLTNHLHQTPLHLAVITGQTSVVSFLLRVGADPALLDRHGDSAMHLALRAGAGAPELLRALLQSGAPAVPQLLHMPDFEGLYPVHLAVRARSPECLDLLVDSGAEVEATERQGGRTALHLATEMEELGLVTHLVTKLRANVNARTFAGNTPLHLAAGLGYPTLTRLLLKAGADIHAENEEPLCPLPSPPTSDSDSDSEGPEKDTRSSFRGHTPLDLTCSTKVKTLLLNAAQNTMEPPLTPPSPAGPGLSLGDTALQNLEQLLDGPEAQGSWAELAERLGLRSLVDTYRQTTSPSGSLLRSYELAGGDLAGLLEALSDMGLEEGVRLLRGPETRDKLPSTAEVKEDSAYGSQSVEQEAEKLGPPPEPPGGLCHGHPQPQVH", "T1 sequence (Q04206 whole entry, looked up)": "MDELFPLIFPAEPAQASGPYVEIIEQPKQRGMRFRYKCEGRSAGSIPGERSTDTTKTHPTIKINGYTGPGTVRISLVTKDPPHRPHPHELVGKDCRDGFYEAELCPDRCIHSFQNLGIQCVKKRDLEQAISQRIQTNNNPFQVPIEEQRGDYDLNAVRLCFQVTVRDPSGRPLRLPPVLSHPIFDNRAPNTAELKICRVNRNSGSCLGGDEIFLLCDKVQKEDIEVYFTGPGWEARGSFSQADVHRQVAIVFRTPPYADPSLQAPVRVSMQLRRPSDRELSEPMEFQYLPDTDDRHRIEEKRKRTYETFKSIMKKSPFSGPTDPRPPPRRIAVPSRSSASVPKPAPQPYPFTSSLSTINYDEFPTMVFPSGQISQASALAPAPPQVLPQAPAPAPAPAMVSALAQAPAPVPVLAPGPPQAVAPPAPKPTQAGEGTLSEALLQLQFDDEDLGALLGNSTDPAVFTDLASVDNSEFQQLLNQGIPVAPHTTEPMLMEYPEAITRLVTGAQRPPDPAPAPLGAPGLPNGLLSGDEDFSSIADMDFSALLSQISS", "assay": "Activation of NF-KappaB (unknown origin) expressed in HEK293T cells assessed as fold change at 10 nM incubated for 12 hrs by Renilla luciferase assay", "type": "cell-based", "conditions": "filed as activator"}, "[4]": {"target": "T1, Nuclear factor NF-kappa-B complex (Homo sapiens)", "assay": "Activation of NF-KappaB (unknown origin) expressed in HEK293T cells assessed as fold change at 10 ng incubated for 12 hrs by Renilla luciferase assay", "type": "cell-based", "conditions": "filed as activator"}, "[5]": {"target": "T1, Nuclear factor NF-kappa-B complex (Homo sapiens)", "assay": "Activation of NF-KappaB (unknown origin) expressed in HEK293T cells assessed as fold change at 100 nM incubated for 12 hrs by Renilla luciferase assay", "type": "cell-based", "conditions": "filed as activator"}, "[6]": {"target": "T1, Nuclear factor NF-kappa-B complex (Homo sapiens)", "assay": "Activation of NF-KappaB (unknown origin) expressed in HEK293T cells assessed as fold change at 1000 nM incubated for 12 hrs by Renilla luciferase assay", "type": "cell-based", "conditions": "filed as activator"}}, "data": [{"smiles": "C[C@H](NC(=O)[C@@H](C)O[C@@H]1[C@@H](N)[C@H](O)O[C@H](CN)[C@H]1O)C(=O)N[C@H](CCC(=O)O)C(N)=O.Cl.Cl", "values": [{"measurement": "Activity", "setting": "Cavia porcellus [1]", "value": 17.1, "unit": "mm"}, {"measurement": "Activity", "setting": "Cavia porcellus [2]", "value": 5.1, "unit": "mm"}]}, {"smiles": "CC(=O)NC[C@H]1O[C@@H](O)[C@H](NC(C)=O)[C@@H](O[C@H](C)C(=O)N[C@@H](C)C(=O)N[C@H](CCC(=O)O)C(N)=O)[C@@H]1O", "values": [{"measurement": "Activity", "setting": "Cavia porcellus [1]", "value": 21.4, "unit": "mm"}, {"measurement": "Activity", "setting": "Cavia porcellus [2]", "value": 16.7, "unit": "mm"}]}, {"smiles": "CC(=O)N[C@@H]1[C@@H](O[C@H](C)C(=O)N[C@H](C(=O)N[C@H](CCC(=O)O)C(N)=O)C(C)C)[C@H](O)[C@@H](CN)O[C@H]1O", "values": [{"measurement": "Activity", "setting": "Cavia porcellus [1]", "value": 20.4, "unit": "mm"}, {"measurement": "Activity", "setting": "Cavia porcellus [2]", "value": 15.3, "unit": "mm"}]}, {"smiles": "CCCCCCCCCCCCCCCCCC(=O)NC[C@H]1O[C@@H](O)[C@H](NC(C)=O)[C@@H](O[C@H](C)C(=O)N[C@H](C(=O)N[C@H](CCC(=O)O)C(N)=O)C(C)C)[C@@H]1O", "values": [{"measurement": "Activity", "setting": "Cavia porcellus [1]", "value": 22.5, "unit": "mm"}, {"measurement": "Activity", "setting": "Cavia porcellus [2]", "value": 18.5, "unit": "mm"}]}, {"smiles": "C[C@H](NC(=O)[C@@H](C)O[C@@H]1[C@@H](N)[C@H](O)O[C@H](CN)[C@H]1O)C(=O)N[C@H](CCC(=O)O)C(N)=O", "values": [{"measurement": "Activity", "setting": "Cavia porcellus [1]", "value": 15.1, "unit": "mm"}, {"measurement": "Activity", "setting": "Cavia porcellus [2]", "value": 9.3, "unit": "mm"}]}, {"smiles": "CCCCCCCCCCCCCCCCCC(=O)NC[C@H]1O[C@@H](O)[C@H](NC(C)=O)[C@@H](O[C@H](C)C(=O)N[C@@H](C)C(=O)N[C@H](CCC(=O)O)C(N)=O)[C@@H]1O", "values": [{"measurement": "Activity", "setting": "Cavia porcellus [1]", "value": 20.5, "unit": "mm"}, {"measurement": "Activity", "setting": "Cavia porcellus [2]", "value": 15.8, "unit": "mm"}]}, {"smiles": "CCCCCCCCCCCCCCCCCCCC(=O)NC[C@H]1O[C@@H](O)[C@H](N)[C@@H](O[C@H](C)C(=O)N[C@@H](C)C(=O)N[C@H](CCC(=O)O)C(N)=O)[C@@H]1O.Cl", "values": [{"measurement": "Activity", "setting": "Cavia porcellus [1]", "value": 8, "unit": "mm"}]}, {"smiles": "CC(=O)N[C@@H]1[C@@H](O[C@H](C)C(=O)N[C@@H](CO)C(=O)N[C@H](CCC(=O)O)C(N)=O)[C@H](O)[C@@H](CN)O[C@H]1O", "values": [{"measurement": "Activity", "setting": "Cavia porcellus [1]", "value": 21.6, "unit": "mm"}, {"measurement": "Activity", "setting": "Cavia porcellus [2]", "value": 22.3, "unit": "mm"}]}, {"smiles": "CC(=O)NC[C@H]1O[C@@H](O)[C@H](NC(C)=O)[C@@H](O[C@H](C)C(=O)N[C@@H](CO)C(=O)N[C@H](CCC(=O)O)C(N)=O)[C@@H]1O", "values": [{"measurement": "Activity", "setting": "Cavia porcellus [1]", "value": 20.4, "unit": "mm"}, {"measurement": "Activity", "setting": "Cavia porcellus [2]", "value": 19.6, "unit": "mm"}]}, {"smiles": "CC(=O)N[C@@H]1[C@@H](O[C@H](C)C(=O)N[C@@H](CO)C(=O)N[C@H](CCC(=O)O)C(N)=O)[C@H](O)[C@@H](CO)O[C@H]1O", "values": [{"measurement": "Activity", "setting": "Cavia porcellus [1]", "value": 23.1, "unit": "mm"}, {"measurement": "Activity", "setting": "Cavia porcellus [2]", "value": 21.6, "unit": "mm"}]}, {"smiles": "CCCCCCCC(=O)NC[C@H]1O[C@@H](O)[C@H](NC(C)=O)[C@@H](O[C@H](C)C(=O)N[C@@H](C)C(=O)N[C@H](CCC(=O)O)C(N)=O)[C@@H]1O", "values": [{"measurement": "Activity", "setting": "Cavia porcellus [1]", "value": 16.7, "unit": "mm"}, {"measurement": "Activity", "setting": "Cavia porcellus [2]", "value": 8.8, "unit": "mm"}]}, {"smiles": "CCCCCCCCCCCCCCCCCC(=O)N[C@@H]1[C@@H](O[C@H](C)C(=O)N[C@H](C(=O)N[C@H](CCC(=O)O)C(N)=O)C(C)C)[C@H](O)[C@@H](CN)O[C@H]1O", "values": [{"measurement": "Activity", "setting": "Cavia porcellus [1]", "value": 10.5, "unit": "mm"}]}, {"smiles": "CC(=O)NC[C@H]1O[C@@H](O)[C@H](NC(C)=O)[C@@H](O[C@H](C)C(=O)N[C@H](C(=O)N[C@H](CCC(=O)O)C(N)=O)C(C)C)[C@@H]1O", "values": [{"measurement": "Activity", "setting": "Cavia porcellus [1]", "value": 19.1, "unit": "mm"}, {"measurement": "Activity", "setting": "Cavia porcellus [2]", "value": 19.5, "unit": "mm"}]}, {"smiles": "CC(=O)N[C@@H]1[C@@H](O[C@H](C)C(=O)N[C@H](C(=O)N[C@H](CCC(=O)O)C(N)=O)C(C)C)[C@H](O)[C@@H](CO)O[C@H]1O", "values": [{"measurement": "Activity", "setting": "Cavia porcellus [1]", "value": 25.2, "unit": "mm"}, {"measurement": "Activity", "setting": "Cavia porcellus [2]", "value": 24.6, "unit": "mm"}]}, {"smiles": "CC(=O)N[C@@H]1[C@@H](O[C@H](C)C(=O)N[C@@H](C)C(=O)N[C@H](CCC(=O)O)C(=O)O)[C@H](O)[C@@H](CO)O[C@H]1O", "values": [{"measurement": "fold change (FC)", "setting": "[3]", "value": 2.5}, {"measurement": "fold change (FC)", "setting": "[4]", "value": 2.5}, {"measurement": "fold change (FC)", "setting": "[5]", "value": 4.5}, {"measurement": "fold change (FC)", "setting": "[6]", "value": 6.1}]}, {"smiles": "CCCCCCCCOC(=O)[C@@H](CCC(=O)O)NC(=O)[C@H](C)NC(=O)[C@@H](C)O[C@H]1[C@H](O)[C@@H](CO)O[C@@H](O)[C@@H]1NC(C)=O", "values": [{"measurement": "fold change (FC)", "setting": "[3]", "value": 6.1}, {"measurement": "fold change (FC)", "setting": "[4]", "value": 6.1}, {"measurement": "fold change (FC)", "setting": "[5]", "value": 6.9}, {"measurement": "fold change (FC)", "setting": "[6]", "value": 6.3}]}, {"smiles": "CCCCCCCCCCCCCCCCCC(=O)NC[C@H]1O[C@@H](O)[C@H](N)[C@@H](O[C@H](C)C(=O)N[C@H](C(=O)N[C@H](CCC(=O)O)C(N)=O)C(C)C)[C@@H]1O", "values": [{"measurement": "Activity", "setting": "Cavia porcellus [1]", "value": 4.3, "unit": "mm"}]}, {"smiles": "CCOC(=O)CC[C@@H](NC(=O)[C@H](C)NC(=O)[C@@H](C)O[C@H]1[C@H](O)[C@@H](CO)O[C@@H](O)[C@@H]1NC(C)=O)C(=O)OCC", "values": [{"measurement": "fold change (FC)", "setting": "[3]", "value": 2.3}, {"measurement": "fold change (FC)", "setting": "[4]", "value": 2.3}, {"measurement": "fold change (FC)", "setting": "[5]", "value": 4.7}, {"measurement": "fold change (FC)", "setting": "[6]", "value": 6.5}]}]}
